Measured values published in US20230085307A1, “PYRIDAZINONE COMPOUND AND HERBICIDE” (NISSAN CHEMICAL CORPORATION, priority 2019, published 2023).

Key:
barnyard grass [1] = experiment: Test Example 3: herbicidal effect by foliage application, Wagner pot (Table 18, symbol H); assay type: in vivo, barnyard grass (Echinochloa crus-galli); settings: 320 g/ha
Summary of the method: (§1)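 Plants were sown in alluvial soil held under 0.1–0.5 cm standing water and grown 14 days in a greenhouse at 25–30 °C. An emulsifiable formulation, water-diluted to the set dose, was then sprayed onto the foliage, and effects were scored three weeks later using previously defined criteria.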

Chinese sprangletop = experiment: Test Example 3: herbicidal effect by foliage application, Wagner pot (Table 18, symbol D); assay type: in vivo, chinese sprangletop (Leptochloa chinensis); settings: 320 g/ha
Summary of the method: as §1

rice flat sedge = experiment: Test Example 3: herbicidal effect by foliage application, Wagner pot (Table 18, symbol E); assay type: in vivo, rice flat sedge (Cyperus iria); settings: 320 g/ha
Summary of the method: as §1

southern crabgrass [2] = experiment: Test Example 4: herbicidal effect by soil treatment (Table 19, symbol F); assay type: in vivo, southern crabgrass (Digitaria ciliaris); settings: amount of applied herbicide 320 g/ha
Summary of the method: (§2)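 In this soil treatment, the formulated compound reached the seeds only through the soil: seeds were buried about 1.5 cm deep in sterilized diluvial soil, then the diluted emulsion was sprayed over the surface. After three weeks at 25° C. to 30° C. in a greenhouse, effects were graded on criteria from an earlier test.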

green foxtail [3] = experiment: Test Example 4: herbicidal effect by soil treatment (Table 19, symbol G); assay type: in vivo, green foxtail (Setaria viridis); settings: amount of applied herbicide 320 g/ha
Summary of the method: as §2

barnyard grass [4] = experiment: Test Example 4: herbicidal effect by soil treatment (Table 19, symbol H); assay type: in vivo, barnyard grass (Echinochloa crus-galli); settings: amount of applied herbicide 320 g/ha
Summary of the method: as §2

wild oat [5] = experiment: Test Example 4: herbicidal effect by soil treatment (Table 19, symbol I); assay type: in vivo, wild oat (Avena fatua); settings: amount of applied herbicide 320 g/ha
Summary of the method: as §2

blackgrass [6] = experiment: Test Example 4: herbicidal effect by soil treatment (Table 19, symbol J); assay type: in vivo, blackgrass (Alopecurus myosuroides); settings: amount of applied herbicide 320 g/ha
Summary of the method: as §2

Italian ryegrass [7] = experiment: Test Example 4: herbicidal effect by soil treatment (Table 19, symbol K); assay type: in vivo, Italian ryegrass (Lolium multiflorum); settings: amount of applied herbicide 320 g/ha
Summary of the method: as §2

windgrass [8] = experiment: Test Example 4: herbicidal effect by soil treatment (Table 19, symbol L); assay type: in vivo, windgrass (Apera spica-venti); settings: amount of applied herbicide 320 g/ha
Summary of the method: as §2

velvetleaf [9] = experiment: Test Example 4: herbicidal effect by soil treatment (Table 19, symbol M); assay type: in vivo, velvetleaf (Abutilon theophrasti); settings: amount of applied herbicide 320 g/ha
Summary of the method: as §2

redroot pigweed [10] = experiment: Test Example 4: herbicidal effect by soil treatment (Table 19, symbol N); assay type: in vivo, redroot pigweed (Amaranthus retroflexus); settings: amount of applied herbicide 320 g/ha
Summary of the method: as §2

lambsquarters [11] = experiment: Test Example 4: herbicidal effect by soil treatment (Table 19, symbol O); assay type: in vivo, lambsquarters (Chenopodium album); settings: amount of applied herbicide 320 g/ha
Summary of the method: as §2

chickweed [12] = experiment: Test Example 4: herbicidal effect by soil treatment (Table 19, symbol P); assay type: in vivo, common chickweed (Stellaria media); settings: amount of applied herbicide 320 g/ha
Summary of the method: as §2

persian speedwell [13] = experiment: Test Example 4: herbicidal effect by soil treatment (Table 19, symbol R); assay type: in vivo, Persian speedwell (Veronica persica); settings: amount of applied herbicide 320 g/ha
Summary of the method: as §2

southern crabgrass [14] = experiment: Test Example 5: herbicidal effect by foliage application, plastic box (Table 20, symbol F); assay type: in vivo, southern crabgrass (Digitaria ciliaris); settings: 320 g/ha, foliage application after 14-day growth, evaluated three weeks after application
Summary of the method: (§3)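 Plants were sown into sterilized diluvial soil under about 1.5 cm cover and kept in a greenhouse at 25° C. to 30° C. Fourteen days on, foliage received an even spray of the diluted emulsion. Herbicidal or crop effect was judged three weeks afterwards.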

green foxtail [15] = experiment: Test Example 5: herbicidal effect by foliage application, plastic box (Table 20, symbol G); assay type: in vivo, green foxtail (Setaria viridis); settings: 320 g/ha, foliage application after 14-day growth, evaluated three weeks after application
Summary of the method: as §3

barnyard grass [16] = experiment: Test Example 5: herbicidal effect by foliage application, plastic box (Table 20, symbol H); assay type: in vivo, barnyard grass (Echinochloa crus-galli); settings: 320 g/ha, foliage application after 14-day growth, evaluated three weeks after application
Summary of the method: as §3

wild oat [17] = experiment: Test Example 5: herbicidal effect by foliage application, plastic box (Table 20, symbol I); assay type: in vivo, wild oat (Avena fatua); settings: 320 g/ha, foliage application after 14-day growth, evaluated three weeks after application
Summary of the method: as §3

blackgrass [18] = experiment: Test Example 5: herbicidal effect by foliage application, plastic box (Table 20, symbol J); assay type: in vivo, blackgrass (Alopecurus myosuroides); settings: 320 g/ha, foliage application after 14-day growth, evaluated three weeks after application
Summary of the method: as §3

Italian ryegrass [19] = experiment: Test Example 5: herbicidal effect by foliage application, plastic box (Table 20, symbol K); assay type: in vivo, Italian ryegrass (Lolium multiflorum); settings: 320 g/ha, foliage application after 14-day growth, evaluated three weeks after application
Summary of the method: as §3

windgrass [20] = experiment: Test Example 5: herbicidal effect by foliage application, plastic box (Table 20, symbol L); assay type: in vivo, windgrass (Apera spica-venti); settings: 320 g/ha, foliage application after 14-day growth, evaluated three weeks after application
Summary of the method: as §3

velvetleaf [21] = experiment: Test Example 5: herbicidal effect by foliage application, plastic box (Table 20, symbol M); assay type: in vivo, velvetleaf (Abutilon theophrasti); settings: 320 g/ha, foliage application after 14-day growth, evaluated three weeks after application
Summary of the method: as §3

redroot pigweed [22] = experiment: Test Example 5: herbicidal effect by foliage application, plastic box (Table 20, symbol N); assay type: in vivo, redroot pigweed (Amaranthus retroflexus); settings: 320 g/ha, foliage application after 14-day growth, evaluated three weeks after application
Summary of the method: as §3

lambsquarters [23] = experiment: Test Example 5: herbicidal effect by foliage application, plastic box (Table 20, symbol O); assay type: in vivo, lambsquarters (Chenopodium album); settings: 320 g/ha, foliage application after 14-day growth, evaluated three weeks after application
Summary of the method: as §3

chickweed [24] = experiment: Test Example 5: herbicidal effect by foliage application, plastic box (Table 20, symbol P); assay type: in vivo, common chickweed (Stellaria media); settings: 320 g/ha, foliage application after 14-day growth, evaluated three weeks after application
Summary of the method: as §3

persian speedwell [25] = experiment: Test Example 5: herbicidal effect by foliage application, plastic box (Table 20, symbol R); assay type: in vivo, Persian speedwell (Veronica persica); settings: 320 g/ha, foliage application after 14-day growth, evaluated three weeks after application
Summary of the method: as §3

Compound: Cc1nn(C)c(=O)c(-c2c(-c3ccccc3)sc3c(Cl)cccc23)c1O [4-056]
- herbicidal effect on barnyard grass (H) (barnyard grass [1]): 4 (Herbicidal rate of 70% or more and less than 90%)
- herbicidal effect on Chinese sprangletop (D) (Chinese sprangletop): 4 (Herbicidal rate of 70% or more and less than 90%)
- herbicidal effect on rice flat sedge (E) (rice flat sedge): 4 (Herbicidal rate of 70% or more and less than 90%)
- Herbicidal effect by soil treatment, F: southern crabgrass (southern crabgrass [2]): 0 (Herbicidal rate of 5% or less (almost no effect))
- Herbicidal effect by soil treatment, G: green foxtail (green foxtail [3]): 0 (Herbicidal rate of 5% or less (almost no effect))
- Herbicidal effect by soil treatment, H: barnyard grass (barnyard grass [4]): 0 (Herbicidal rate of 5% or less (almost no effect))
- Herbicidal effect by soil treatment, I: wild oat (wild oat [5]): 0 (Herbicidal rate of 5% or less (almost no effect))
- Herbicidal effect by soil treatment, J: blackgrass (blackgrass [6]): 0 (Herbicidal rate of 5% or less (almost no effect))
- Herbicidal effect by soil treatment, K: Italian ryegrass (Italian ryegrass [7]): 0 (Herbicidal rate of 5% or less (almost no effect))
- Herbicidal effect by soil treatment, L: windgrass (windgrass [8]): 3 (Herbicidal rate of 40% or more and less than 70%)
- Herbicidal effect by soil treatment, M: velvetleaf (velvetleaf [9]): 0 (Herbicidal rate of 5% or less (almost no effect))
- Herbicidal effect by soil treatment, N: redroot pigweed (redroot pigweed [10]): 0 (Herbicidal rate of 5% or less (almost no effect))
- Herbicidal effect by soil treatment, O: lambsquarters (lambsquarters [11]): 0 (Herbicidal rate of 5% or less (almost no effect))
- Herbicidal effect by soil treatment, P: chickweed (chickweed [12]): 3 (Herbicidal rate of 40% or more and less than 70%)
- Herbicidal effect by soil treatment, R: persian speedwell (persian speedwell [13]): 0 (Herbicidal rate of 5% or less (almost no effect))
- herbicidal effect on F: southern crabgrass (evaluation grade 0-5) (southern crabgrass [14]): 2 (Herbicidal rate of 20% or more and less than 40%)
- herbicidal effect on G: green foxtail (evaluation grade 0-5) (green foxtail [15]): 1 (Herbicidal rate of 5% or more and less than 20%)
- herbicidal effect on H: barnyard grass (evaluation grade 0-5) (barnyard grass [16]): 3 (Herbicidal rate of 40% or more and less than 70%)
- herbicidal effect on I: wild oat (evaluation grade 0-5) (wild oat [17]): 4 (Herbicidal rate of 70% or more and less than 90%)
- herbicidal effect on J: blackgrass (evaluation grade 0-5) (blackgrass [18]): 4 (Herbicidal rate of 70% or more and less than 90%)
- herbicidal effect on K: Italian ryegrass (evaluation grade 0-5) (Italian ryegrass [19]): 4 (Herbicidal rate of 70% or more and less than 90%)
- herbicidal effect on L: windgrass (evaluation grade 0-5) (windgrass [20]): 5 (Herbicidal rate of 90% or more (almost completely withered))
- herbicidal effect on M: velvetleaf (evaluation grade 0-5) (velvetleaf [21]): 5 (Herbicidal rate of 90% or more (almost completely withered))
- herbicidal effect on N: redroot pigweed (evaluation grade 0-5) (redroot pigweed [22]): 5 (Herbicidal rate of 90% or more (almost completely withered))
- herbicidal effect on O: lambsquarters (evaluation grade 0-5) (lambsquarters [23]): 3 (Herbicidal rate of 40% or more and less than 70%)
- herbicidal effect on P: chickweed (evaluation grade 0-5) (chickweed [24]): 5 (Herbicidal rate of 90% or more (almost completely withered))
- herbicidal effect on R: persian speedwell (evaluation grade 0-5) (persian speedwell [25]): 5 (Herbicidal rate of 90% or more (almost completely withered))

Compound: CCCCOc1cccc(-c2sc3c(Cl)cccc3c2-c2c(O)c(C)nn(C)c2=O)c1 [4-068]
- herbicidal effect on barnyard grass (H) (barnyard grass [1]): 4 (Herbicidal rate of 70% or more and less than 90%)
- herbicidal effect on Chinese sprangletop (D) (Chinese sprangletop): 3 (Herbicidal rate of 40% or more and less than 70%)
- herbicidal effect on rice flat sedge (E) (rice flat sedge): 3 (Herbicidal rate of 40% or more and less than 70%)
- Herbicidal effect by soil treatment, F: southern crabgrass (southern crabgrass [2]): 0 (Herbicidal rate of 5% or less (almost no effect))
- Herbicidal effect by soil treatment, G: green foxtail (green foxtail [3]): 0 (Herbicidal rate of 5% or less (almost no effect))
- Herbicidal effect by soil treatment, H: barnyard grass (barnyard grass [4]): 0 (Herbicidal rate of 5% or less (almost no effect))
- Herbicidal effect by soil treatment, I: wild oat (wild oat [5]): 0 (Herbicidal rate of 5% or less (almost no effect))
- Herbicidal effect by soil treatment, J: blackgrass (blackgrass [6]): 0 (Herbicidal rate of 5% or less (almost no effect))
- Herbicidal effect by soil treatment, K: Italian ryegrass (Italian ryegrass [7]): 0 (Herbicidal rate of 5% or less (almost no effect))
- Herbicidal effect by soil treatment, L: windgrass (windgrass [8]): 0 (Herbicidal rate of 5% or less (almost no effect))
- Herbicidal effect by soil treatment, M: velvetleaf (velvetleaf [9]): 0 (Herbicidal rate of 5% or less (almost no effect))
- Herbicidal effect by soil treatment, N: redroot pigweed (redroot pigweed [10]): 3 (Herbicidal rate of 40% or more and less than 70%)
- Herbicidal effect by soil treatment, O: lambsquarters (lambsquarters [11]): 0 (Herbicidal rate of 5% or less (almost no effect))
- Herbicidal effect by soil treatment, P: chickweed (chickweed [12]): 0 (Herbicidal rate of 5% or less (almost no effect))
- Herbicidal effect by soil treatment, R: persian speedwell (persian speedwell [13]): 0 (Herbicidal rate of 5% or less (almost no effect))
- herbicidal effect on F: southern crabgrass (evaluation grade 0-5) (southern crabgrass [14]): 0 (Herbicidal rate of 5% or less (almost no effect))
- herbicidal effect on G: green foxtail (evaluation grade 0-5) (green foxtail [15]): 0 (Herbicidal rate of 5% or less (almost no effect))
- herbicidal effect on H: barnyard grass (evaluation grade 0-5) (barnyard grass [16]): 0 (Herbicidal rate of 5% or less (almost no effect))
- herbicidal effect on I: wild oat (evaluation grade 0-5) (wild oat [17]): 0 (Herbicidal rate of 5% or less (almost no effect))
- herbicidal effect on J: blackgrass (evaluation grade 0-5) (blackgrass [18]): 0 (Herbicidal rate of 5% or less (almost no effect))
- herbicidal effect on K: Italian ryegrass (evaluation grade 0-5) (Italian ryegrass [19]): 0 (Herbicidal rate of 5% or less (almost no effect))
- herbicidal effect on L: windgrass (evaluation grade 0-5) (windgrass [20]): 0 (Herbicidal rate of 5% or less (almost no effect))
- herbicidal effect on M: velvetleaf (evaluation grade 0-5) (velvetleaf [21]): 0 (Herbicidal rate of 5% or less (almost no effect))
- herbicidal effect on N: redroot pigweed (evaluation grade 0-5) (redroot pigweed [22]): 2 (Herbicidal rate of 20% or more and less than 40%)
- herbicidal effect on O: lambsquarters (evaluation grade 0-5) (lambsquarters [23]): 0 (Herbicidal rate of 5% or less (almost no effect))
- herbicidal effect on P: chickweed (evaluation grade 0-5) (chickweed [24]): 5 (Herbicidal rate of 90% or more (almost completely withered))
- herbicidal effect on R: persian speedwell (evaluation grade 0-5) (persian speedwell [25]): 5 (Herbicidal rate of 90% or more (almost completely withered))
